# Reference: ChEMBL document CHEMBL4665643 (Bioorg Med Chem Lett, 2019)
# Legend:
# [1] = Lipophilicity, logD of compound; format: physicochemical; conditions: octanol/water
# [2] = target: Tyrosine-protein kinase ABL1 (Homo sapiens) (UniProt P00519); assay: Inhibition of recombinant human His-tagged full length Abl expressed in baculovirus expression system using Tyr 02 as substrate at 0.1 uM incubated for 60 mins by Z'-Lyte assay relative to control
# [3] = target: Serine/threonine-protein kinase PAK 1 (Homo sapiens) (UniProt Q13153); assay: Inhibition of recombinant human GST-tagged full length PAK1 expressed in baculovirus expression system using Ser/Thr 19 as substrate at 0.1 uM incubated for 60 mins by Z'-lyte assay relative to control
# Serine/threonine-protein kinase PAK 1 (Homo sapiens), sequence (Q13153 whole entry): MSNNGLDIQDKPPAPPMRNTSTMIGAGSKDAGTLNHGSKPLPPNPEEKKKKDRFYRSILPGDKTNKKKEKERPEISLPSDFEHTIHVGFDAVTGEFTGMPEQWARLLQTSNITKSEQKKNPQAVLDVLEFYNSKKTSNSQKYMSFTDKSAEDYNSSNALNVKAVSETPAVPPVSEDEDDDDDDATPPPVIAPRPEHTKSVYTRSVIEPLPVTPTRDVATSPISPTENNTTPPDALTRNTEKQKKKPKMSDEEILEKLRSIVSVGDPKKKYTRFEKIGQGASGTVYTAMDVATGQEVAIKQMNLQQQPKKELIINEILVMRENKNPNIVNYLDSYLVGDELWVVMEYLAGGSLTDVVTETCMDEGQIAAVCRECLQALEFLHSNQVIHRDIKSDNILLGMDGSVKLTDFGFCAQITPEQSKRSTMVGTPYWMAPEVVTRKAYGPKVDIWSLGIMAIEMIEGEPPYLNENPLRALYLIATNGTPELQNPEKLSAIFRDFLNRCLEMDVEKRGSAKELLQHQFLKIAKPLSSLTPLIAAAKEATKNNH
# [4] = target: T1, Dual specificity protein kinase TTK (Homo sapiens) (UniProt P33981); assay: Inhibition of tracer 236 binding to recombinant human GST-tagged full length TTK expressed in baculovirus expression system at 0.1 uM incubated for 60 mins by Lanthascreen assay relative to control
# T1 sequence (whole entry): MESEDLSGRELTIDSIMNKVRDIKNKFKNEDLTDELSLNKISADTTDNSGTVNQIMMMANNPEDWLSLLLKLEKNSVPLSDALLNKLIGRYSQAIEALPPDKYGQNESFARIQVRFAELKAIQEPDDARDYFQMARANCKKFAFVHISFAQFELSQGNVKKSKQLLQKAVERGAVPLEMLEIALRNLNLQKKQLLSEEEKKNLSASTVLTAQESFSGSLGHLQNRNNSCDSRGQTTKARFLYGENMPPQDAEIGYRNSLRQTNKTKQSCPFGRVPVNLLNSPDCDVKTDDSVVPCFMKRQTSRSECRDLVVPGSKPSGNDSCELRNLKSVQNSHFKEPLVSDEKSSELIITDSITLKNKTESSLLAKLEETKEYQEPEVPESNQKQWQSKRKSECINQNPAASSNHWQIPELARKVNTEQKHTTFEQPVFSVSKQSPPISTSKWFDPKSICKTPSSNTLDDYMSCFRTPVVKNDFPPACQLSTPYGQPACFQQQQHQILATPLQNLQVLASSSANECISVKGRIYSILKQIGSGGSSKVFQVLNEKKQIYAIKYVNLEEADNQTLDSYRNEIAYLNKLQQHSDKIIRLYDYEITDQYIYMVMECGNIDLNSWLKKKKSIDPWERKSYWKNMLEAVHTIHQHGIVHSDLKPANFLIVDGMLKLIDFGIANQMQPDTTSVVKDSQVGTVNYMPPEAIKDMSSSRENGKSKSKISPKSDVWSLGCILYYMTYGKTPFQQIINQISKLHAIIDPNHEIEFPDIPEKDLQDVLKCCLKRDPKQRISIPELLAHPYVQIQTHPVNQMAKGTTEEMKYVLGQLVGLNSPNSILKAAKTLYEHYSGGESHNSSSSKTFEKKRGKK
# [5] = target: T2, Inhibitor of nuclear factor kappa-B kinase subunit beta (Homo sapiens) (UniProt O14920); assay: Inhibition of recombinant human GST-tagged full length IKKbeta expressed in baculovirus expression system using Ser/Thr 05 as substrate at 0.1 uM incubated for 60 mins by Z'-Lyte assay relative to control
# T2 sequence (whole entry): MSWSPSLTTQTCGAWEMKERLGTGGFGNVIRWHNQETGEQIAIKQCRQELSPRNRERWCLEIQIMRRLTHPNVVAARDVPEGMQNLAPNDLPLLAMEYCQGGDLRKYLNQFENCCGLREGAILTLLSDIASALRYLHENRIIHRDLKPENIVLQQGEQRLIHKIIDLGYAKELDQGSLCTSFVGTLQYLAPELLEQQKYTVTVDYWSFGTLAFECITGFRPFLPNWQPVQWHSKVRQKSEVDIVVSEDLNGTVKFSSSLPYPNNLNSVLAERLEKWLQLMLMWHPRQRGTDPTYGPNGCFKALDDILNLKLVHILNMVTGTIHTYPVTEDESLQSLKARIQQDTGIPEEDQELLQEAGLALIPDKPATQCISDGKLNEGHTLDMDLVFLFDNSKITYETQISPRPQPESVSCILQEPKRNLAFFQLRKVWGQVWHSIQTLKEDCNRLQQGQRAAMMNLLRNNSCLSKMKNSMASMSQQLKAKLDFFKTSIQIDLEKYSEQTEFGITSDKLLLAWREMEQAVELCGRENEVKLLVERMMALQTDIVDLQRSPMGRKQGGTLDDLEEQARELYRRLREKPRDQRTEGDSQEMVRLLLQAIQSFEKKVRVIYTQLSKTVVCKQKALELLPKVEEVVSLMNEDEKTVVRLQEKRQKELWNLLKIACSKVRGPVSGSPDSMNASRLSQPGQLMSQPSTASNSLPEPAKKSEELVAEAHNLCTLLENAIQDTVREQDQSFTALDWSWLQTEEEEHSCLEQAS
# [6] = target: RAC-alpha serine/threonine-protein kinase (Homo sapiens) (UniProt P31749); assay: Inhibition of recombinant human His-tagged full length AKT1 expressed in baculovirus expression system using Ser/Thr 06 as substrate at 0.1 uM incubated for 60 mins by Z'-Lyte assay relative to control
# RAC-alpha serine/threonine-protein kinase (Homo sapiens), sequence (P31749 whole entry): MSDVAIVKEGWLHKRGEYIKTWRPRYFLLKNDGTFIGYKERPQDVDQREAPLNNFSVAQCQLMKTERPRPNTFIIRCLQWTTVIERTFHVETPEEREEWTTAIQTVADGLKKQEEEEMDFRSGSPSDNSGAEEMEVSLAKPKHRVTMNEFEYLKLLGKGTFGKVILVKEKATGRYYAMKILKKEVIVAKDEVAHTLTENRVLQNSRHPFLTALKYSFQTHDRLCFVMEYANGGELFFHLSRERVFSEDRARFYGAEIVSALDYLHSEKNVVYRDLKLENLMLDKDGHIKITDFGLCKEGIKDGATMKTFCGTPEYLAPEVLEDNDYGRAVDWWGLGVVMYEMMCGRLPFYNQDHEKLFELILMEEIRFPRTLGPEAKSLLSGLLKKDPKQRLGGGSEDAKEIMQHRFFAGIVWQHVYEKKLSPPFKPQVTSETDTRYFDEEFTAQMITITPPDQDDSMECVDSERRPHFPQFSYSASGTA
# [7] = target: Mitogen-activated protein kinase 1 (Homo sapiens) (UniProt P28482); assay: Inhibition of recombinant human GST-tagged full length ERK2 expressed in baculovirus expression system using Ser/Thr 03 as substrate at 0.1 uM incubated for 60 mins by Z'-Lyte assay relative to control
# Mitogen-activated protein kinase 1 (Homo sapiens), sequence (P28482 whole entry): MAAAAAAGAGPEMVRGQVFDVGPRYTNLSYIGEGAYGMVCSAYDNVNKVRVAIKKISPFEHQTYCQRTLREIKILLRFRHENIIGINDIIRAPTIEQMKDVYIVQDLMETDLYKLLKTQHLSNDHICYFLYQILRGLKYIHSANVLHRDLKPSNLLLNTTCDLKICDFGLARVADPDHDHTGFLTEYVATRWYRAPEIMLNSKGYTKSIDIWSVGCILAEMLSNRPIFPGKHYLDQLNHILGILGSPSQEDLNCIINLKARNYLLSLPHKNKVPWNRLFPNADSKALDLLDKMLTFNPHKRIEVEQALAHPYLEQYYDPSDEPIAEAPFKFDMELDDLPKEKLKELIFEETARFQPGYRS
# [8] = target: T3, Mitogen-activated protein kinase 12 (Homo sapiens) (UniProt P53778); assay: Inhibition of recombinant human His-tagged full length p38 gamma expressed in baculovirus expression system using Ser/Thr 03 as substrate at 0.1 uM incubated for 60 mins by Z'-Lyte assay relative to control
# T3 sequence (whole entry): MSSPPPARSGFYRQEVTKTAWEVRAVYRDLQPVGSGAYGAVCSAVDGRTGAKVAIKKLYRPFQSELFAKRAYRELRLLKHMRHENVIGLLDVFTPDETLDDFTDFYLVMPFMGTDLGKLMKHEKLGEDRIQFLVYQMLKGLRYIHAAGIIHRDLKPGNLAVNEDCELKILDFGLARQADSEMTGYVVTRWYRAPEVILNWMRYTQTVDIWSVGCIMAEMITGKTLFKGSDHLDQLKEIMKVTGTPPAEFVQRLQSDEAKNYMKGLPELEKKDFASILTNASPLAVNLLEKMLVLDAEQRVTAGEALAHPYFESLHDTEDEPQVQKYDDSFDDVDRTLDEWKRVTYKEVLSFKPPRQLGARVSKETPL
# [9] = target: Ephrin type-A receptor 4 (Homo sapiens) (UniProt P54764); assay: Inhibition of recombinant human GST-tagged EPHA4 (616 to 887 residues) expressed in baculovirus expression system using Tyr 02 as substrate at 0.1 uM incubated for 60 mins by Z'-Lyte assay relative to control
# Ephrin type-A receptor 4 (Homo sapiens), sequence (P54764 whole entry, the tested form may be a part): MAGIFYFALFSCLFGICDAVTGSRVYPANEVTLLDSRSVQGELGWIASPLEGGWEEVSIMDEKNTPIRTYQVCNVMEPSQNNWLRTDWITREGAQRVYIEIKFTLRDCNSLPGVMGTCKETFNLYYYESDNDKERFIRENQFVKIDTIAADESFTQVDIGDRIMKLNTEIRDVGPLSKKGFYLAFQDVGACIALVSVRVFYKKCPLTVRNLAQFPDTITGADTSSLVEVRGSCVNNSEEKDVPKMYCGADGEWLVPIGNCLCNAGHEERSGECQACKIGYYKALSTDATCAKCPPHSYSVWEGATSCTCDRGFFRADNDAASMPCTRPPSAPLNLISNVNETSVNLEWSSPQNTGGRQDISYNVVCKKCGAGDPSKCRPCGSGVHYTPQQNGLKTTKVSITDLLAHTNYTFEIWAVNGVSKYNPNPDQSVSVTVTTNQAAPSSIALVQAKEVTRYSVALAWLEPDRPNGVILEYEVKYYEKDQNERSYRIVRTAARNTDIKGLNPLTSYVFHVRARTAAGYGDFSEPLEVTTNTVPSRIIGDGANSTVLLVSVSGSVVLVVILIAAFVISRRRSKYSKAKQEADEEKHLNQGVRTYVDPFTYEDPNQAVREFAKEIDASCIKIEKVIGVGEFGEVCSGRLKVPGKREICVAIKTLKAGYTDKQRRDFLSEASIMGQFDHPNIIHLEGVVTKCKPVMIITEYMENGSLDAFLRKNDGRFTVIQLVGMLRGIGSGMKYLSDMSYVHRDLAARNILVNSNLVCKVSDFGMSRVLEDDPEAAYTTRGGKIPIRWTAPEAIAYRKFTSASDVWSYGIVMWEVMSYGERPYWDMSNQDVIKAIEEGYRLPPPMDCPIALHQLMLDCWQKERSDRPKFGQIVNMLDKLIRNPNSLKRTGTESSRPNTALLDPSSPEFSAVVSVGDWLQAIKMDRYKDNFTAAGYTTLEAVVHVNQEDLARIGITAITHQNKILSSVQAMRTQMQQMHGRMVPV
# [10] = target: Dual specificity mitogen-activated protein kinase kinase 1 (Homo sapiens) (UniProt Q02750); assay: Inhibition of recombinant human His-tagged full length MEK1 expressed in baculovirus expression system using Ser/Thr 03 as substrate at 0.1 uM incubated for 60 mins by Z'-lyte assay relative to control
# Dual specificity mitogen-activated protein kinase kinase 1 (Homo sapiens), sequence (Q02750 whole entry): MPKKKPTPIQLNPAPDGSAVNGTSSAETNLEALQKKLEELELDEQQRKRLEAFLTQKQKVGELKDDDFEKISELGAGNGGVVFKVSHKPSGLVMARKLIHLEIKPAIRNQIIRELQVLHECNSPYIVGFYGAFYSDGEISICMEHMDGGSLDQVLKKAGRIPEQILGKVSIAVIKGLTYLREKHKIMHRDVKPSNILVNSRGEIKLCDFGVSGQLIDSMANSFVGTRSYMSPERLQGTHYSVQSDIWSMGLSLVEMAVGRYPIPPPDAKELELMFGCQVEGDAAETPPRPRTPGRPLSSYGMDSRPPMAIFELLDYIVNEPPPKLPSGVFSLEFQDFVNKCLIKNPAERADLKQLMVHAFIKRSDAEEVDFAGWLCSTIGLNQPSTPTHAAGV
# Tyrosine-protein kinase ABL1 (Homo sapiens), sequence (P00519 whole entry): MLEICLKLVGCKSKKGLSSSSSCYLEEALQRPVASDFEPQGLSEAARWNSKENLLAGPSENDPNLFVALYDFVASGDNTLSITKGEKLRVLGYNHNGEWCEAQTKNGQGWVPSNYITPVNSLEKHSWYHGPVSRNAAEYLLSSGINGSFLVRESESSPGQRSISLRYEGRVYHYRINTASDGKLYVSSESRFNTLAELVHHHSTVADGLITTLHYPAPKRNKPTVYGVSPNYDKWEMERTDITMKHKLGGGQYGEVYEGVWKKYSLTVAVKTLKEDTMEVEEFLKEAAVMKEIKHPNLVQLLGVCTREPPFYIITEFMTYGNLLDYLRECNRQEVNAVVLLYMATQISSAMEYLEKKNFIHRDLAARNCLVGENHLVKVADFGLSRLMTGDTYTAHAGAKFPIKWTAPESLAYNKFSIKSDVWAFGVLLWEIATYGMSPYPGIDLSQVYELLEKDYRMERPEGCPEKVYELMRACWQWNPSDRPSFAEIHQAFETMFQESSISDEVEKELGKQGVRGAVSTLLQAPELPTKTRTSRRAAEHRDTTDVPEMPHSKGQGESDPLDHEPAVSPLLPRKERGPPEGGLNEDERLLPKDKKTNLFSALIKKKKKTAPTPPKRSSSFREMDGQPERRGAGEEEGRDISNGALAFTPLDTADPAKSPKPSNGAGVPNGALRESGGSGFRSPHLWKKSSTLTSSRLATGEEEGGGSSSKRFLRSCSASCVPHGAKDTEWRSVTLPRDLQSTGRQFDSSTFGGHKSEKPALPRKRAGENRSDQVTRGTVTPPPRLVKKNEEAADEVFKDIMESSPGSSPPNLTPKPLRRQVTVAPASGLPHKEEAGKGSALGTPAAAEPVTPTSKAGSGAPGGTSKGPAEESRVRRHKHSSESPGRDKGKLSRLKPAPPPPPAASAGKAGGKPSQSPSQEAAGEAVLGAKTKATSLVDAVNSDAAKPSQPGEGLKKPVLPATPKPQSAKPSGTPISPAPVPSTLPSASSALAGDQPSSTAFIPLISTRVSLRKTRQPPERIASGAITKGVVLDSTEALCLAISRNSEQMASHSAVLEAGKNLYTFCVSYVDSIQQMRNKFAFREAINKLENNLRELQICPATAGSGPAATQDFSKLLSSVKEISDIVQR
Compound,logD [1],inhibition [2] [%],inhibition [3] [%],inhibition [4] [%],inhibition [5] [%],inhibition [6] [%],inhibition [7] [%],inhibition [8] [%],inhibition [9] [%],inhibition [10] [%]
Cn1cc(NC(=O)c2cnn3cccnc23)c(-c2cc(Cl)ccc2OC(F)F)n1,3,10,2,5,5,-6,4,4,4,0
O=C(Nc1c[nH]nc1-c1cc(Cl)ccc1OC(F)F)c1cnn2cccnc12,3.2,32,12,4,2,1,1,-1,-4,-8
O=C(Nc1c[nH]nc1-c1cc2ccccc2cc1OC(F)F)c1cnn2cccnc12,3.5,11,-7,-3,-3,-5,-4,5,3,0
